Patent US10555989B2, “Treatment of learning disabilities and other neurological disorders with SK channel inhibitor(s)” (priority 2015, dated 2020)

Experiments:
[1] = system: heat shock factor 1 (Hsf1); conditions: alcohol regimen i.p. at E16.5 and E17.5
Procedure: In utero electroporation was carried out as described [1-3]. Briefly, the plasmid for Flippase-FRT based reporter of heat shock factor 1 (Hsf1) activation was co-electroporated with EGFP-f plasmid (Addgene, 2 μg/μl each).
By using this method, the cells that had robust prenatal Hsf1 activation were labeled by RFP reporter.
The RFP reporter expression was induced upon Hsf1 activation in a subset of GFP-positive neurons. […] Pups were screened using an epifluorescence stereomicroscope at postnatal days (P1) that had GFP-positive cells in their primary motor cortex. Further experiments were performed on these mice i.e., single cell sampling, electrophysiology study, immunohistochemistry (IHC) and neurons morphology at P30.

CD-1 mice = system: CD-1 mice
Procedure: Pregnant mice CD-1 mice purchased from Charles River Company and bred under a light-dark cycle at a constant temperature were injected i.p. with 2 g/kg with either PBS (control) or ethanol (EtOH) thus exposing fetal mice in utero to PBS or EtOH. Thirty days after mice were born (day P30) motor skills of the control and EtOH-treated groups were compared using Rotarod test. The treatment timeline for the mice is shown in FIG. 1A and the Rotarod test is depicted by FIG. 1B.
For assessment of motor learning behavior, mice (P30) were carried out using an accelerating Rotarod apparatus (TSE Instruments) over 3 repeated trials (5 minutes per trial)/day for 2 consecutive days before testing phase. The Rotarod testing involves placing the mice on a rotating bar and determining the length of time that they can retain their balance as the rate of rotation is increased (max 80 rpm, for 5 min). On the day of testing, mice were kept in their home cages and acclimated to the testing room for at least 15 min. 2 min acclimation session at 2 rpm one time prior to the test phase was performed. Testing phase consisted of 3 trials per day separated by 30 min each for 2 consecutive days (total 6 trials). Each trail was terminated when mouse fell off or reached maximum 5 min (maximum speed). During the trials, mice that moved 180° (same direction of rotation) were gently turned around, face forward, to opposite direction of rotation. The latency to fall from a rotating rod was scored automatically with infrared sensors in a Rotamex 5 rotarod (Columbus Inst.; Columbus, Ohio).

[2] = system: mice exposed to EtOH prenatally; experiment: Accelerating Rotarod motor learning before and after Tamapin injection (i.p.) in mice exposed to EtOH prenatally; format: in vivo, CD-1 mice
Procedure: Mice were tested using the Rotarod test described above on postnatal days 30, 31, 32 and 33 days as shown by the timeline in FIG. 5A. Thus, the mice were tested for the motor learning before and after the Tamapin injection (i.p.).

KCNN2 = molecular target: T1, KCNN2 (Mus musculus, UniProt P58390); experiment: Electrophysiology: tamapin-sensitive medium afterhyperpolarization (mAHP) in primary motor cortex slices; format: cell-based, mice; conditions: Tamapin 100 nM
T1 construct: Coronal slices containing primary motor cortex (300 μm) were prepared; from tissue; host or cells: acute coronal slices of primary motor cortex from P30 mice, layer II/III pyramidal neurons
T1 sequence (P58390 266-839): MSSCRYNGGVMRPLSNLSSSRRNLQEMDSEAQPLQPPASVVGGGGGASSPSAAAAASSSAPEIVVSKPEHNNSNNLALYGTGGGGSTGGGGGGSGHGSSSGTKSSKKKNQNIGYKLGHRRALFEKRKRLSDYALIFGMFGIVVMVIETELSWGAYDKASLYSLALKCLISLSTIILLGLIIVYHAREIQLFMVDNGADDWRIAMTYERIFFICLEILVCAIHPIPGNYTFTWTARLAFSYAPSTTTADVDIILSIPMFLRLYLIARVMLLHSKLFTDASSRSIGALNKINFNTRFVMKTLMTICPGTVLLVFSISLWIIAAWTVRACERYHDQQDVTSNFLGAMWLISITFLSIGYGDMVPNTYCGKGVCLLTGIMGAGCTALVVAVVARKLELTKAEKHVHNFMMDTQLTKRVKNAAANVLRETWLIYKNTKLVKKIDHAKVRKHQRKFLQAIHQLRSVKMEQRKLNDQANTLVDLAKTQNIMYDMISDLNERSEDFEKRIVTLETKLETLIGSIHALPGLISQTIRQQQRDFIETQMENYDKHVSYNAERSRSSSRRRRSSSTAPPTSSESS
Procedure: Electrophysiology: Coronal slices containing primary motor cortex (300 μm) were prepared as described above by using a vibrating blade microtome (Leica VT 1000S) from DNA (HSE-FLP0, CAG GFP and RFP FRT, 2 μg/μl each) electroporated mice (P30) brain. The recording chamber was perfused with oxygenated (95% O2/5% CO2) aCSF at 2 ml/min at room temperature. DNA electroporated primary motor cortex neurons were visualized through an infrared charge-coupled device (CCD) camera (C2741-79; Hamamatsu Photonics, Hamamatsu, Japan). The electrodes were filled with internal solution containing (in mM) 130 […], 10 KCl, 10 HEPES, 10 EGTA, 2 MgCl2, 2 Na2-ATP and 0.3 Na-GTP (pH 7.3; electrode resistances: 4-6 MΩ). Cells were recorded in the whole-cell voltage or current clamp mode with a holding potential of −60 mV using a patch-clamp amplifier (700B; Molecular Devices, Sunnyvale, Calif. USA). Series resistance was compensated. The output of the amplifier was digitized using an A/D converter board (Digidata 1322; Molecular Devices) with a sampling rate of 10 kHz, and recorded on a hard disk by data acquisition software (pCLAMP10; Molecular Devices). For the mAHP, cells were held at −60 mV under current clamp mode and action potentials were evoked through injecting positive current. LTP was induced electrically under voltage clamp mode by applying single 1-sec train (100 Hz, 100 μA, Isoflexm, A.M.P.I; CPI, Carl Pisaturo Standord University).
Example 4 KCNN2 Antagonist, Tamapin (100 nM), Affects the Medium Duration Afterhyperpolarization (mAHP) in Reporter-Positive Pyramidal Neurons in M1
(FIGS. 4A-4C, panels a4-c4) Left panels: Cumulative distributions of the amplitude of action potential and the mean amplitude of action potentials (insets)recorded from control (black)- and Tamapin (red)-stimulated neurons. Right panels: Firing frequencies, showing significant increase in RFP^+ neurons. *P=0.016 by Student's t-test.

SK2 channels = conditions: cited from earlier work

Row | Molecule | effects in brain structure [1] | learning and motor skills (CD-1 mice; exposure of fetal mice in utero vs control, summary of Example 1) | initial motor coordination (terminal speed at trial 1, FIG. 1D) (CD-1 mice; in utero EtOH vs PBS, P30, P=0.579) | learning rates (learning index, Rotarod, FIG. 1C) (CD-1 mice; in utero exposure, 2 g/kg i.p. to pregnant mice, P30, males and females, vs PBS) | mean Rotarod terminal speed of control mice relative to EtOH-treated mice (FIG. 1F) (CD-1 mice; trial 1 and trial 6) | initial motor coordination (FIG. 5C) ([2]; EtOH-exposed mice) | motor learning (latency to fall, FIG. 5B) ([2]; EtOH-exposed mice, trial 7-12, Tamapin i.p. vs vehicle, P=0.0001) | latency to fall at the first trial followed by injection (trial 7), vehicle vs Tamapin ([2]; PBS-exposed and EtOH-exposed groups, P=0.302 and 0.960) | initial motor coordination (FIG. 5F) ([2]; PBS-exposed mice) | effects on motor learning (FIG. 5G) ([2]; PBS-exposed mice, trial 7-12, P=0.596) | motor learning / learning rate (FIG. 5D) ([2]; Tamapin-injected EtOH-exposed mice, trial 7-12, P=0.015) | effects of fetal exposure to EtOH ([2]; summary of Example 5) | firing frequency (KCNN2; EtOH-exposed RFP+ neurons, P=0.016) | medium afterhyperpolarization (mAHP) (KCNN2; EtOH-exposed RFP+ pyramidal neurons, M1, P30 slices, P=0.009) | effects on mAHP and firing in RFP- neurons (KCNN2; RFP- neurons in PBS- or EtOH-exposed brains) | rank order of affinity for SK channels (SK2 channels; functional property of native tamapin) | SK channel selectivity (SK2 channels; known property)
1 | CCO [EtOH, ethanol] | did not induce any obvious effects | negatively affects | not affected | decreased | significantly higher | – | – | – | – | – | – | – | – | – | – | – | –
2 | AFCNLRRCELSCRSLGLLGKCIGEECKCVPY [Tamapin] | – | – | – | – | – | not affected | improved the motor learning | similar | not affected | No effects | rescued | significantly reversed | increased the firing frequency | reduced the mAHP | no significant effects | SK2 channel>SK3>SK1>SK4 | selective blocker of SK2 channels
